Earlier results on one molecule are cited in patent publication US20230130225A1, “METHOD OF TREATING AMYOTROPHIC LATERAL SCLEROSIS WITH MYELOPEROXIDASE INHIBITOR” (Biohaven Therapeutics Ltd., priority 2020, published 2023).

Each structure is given as a SMILES string. Read-outs that look alike come from different tables or passages of the source.

For series [1] the following is noted: healthy subjects, multiple dosages of up to 900 mg BID.
The conditions of series [2]: participants with Parkinson's disease and MSA, dosages of up to 600 mg BID for 8-12 weeks.
The target of series [3] is T1, MPO (Homo sapiens, UniProt P05164).
T1 construct: from tissue; host or cells: plasma of clinical study participants
T1 sequence (P05164 279-745 limits assumed): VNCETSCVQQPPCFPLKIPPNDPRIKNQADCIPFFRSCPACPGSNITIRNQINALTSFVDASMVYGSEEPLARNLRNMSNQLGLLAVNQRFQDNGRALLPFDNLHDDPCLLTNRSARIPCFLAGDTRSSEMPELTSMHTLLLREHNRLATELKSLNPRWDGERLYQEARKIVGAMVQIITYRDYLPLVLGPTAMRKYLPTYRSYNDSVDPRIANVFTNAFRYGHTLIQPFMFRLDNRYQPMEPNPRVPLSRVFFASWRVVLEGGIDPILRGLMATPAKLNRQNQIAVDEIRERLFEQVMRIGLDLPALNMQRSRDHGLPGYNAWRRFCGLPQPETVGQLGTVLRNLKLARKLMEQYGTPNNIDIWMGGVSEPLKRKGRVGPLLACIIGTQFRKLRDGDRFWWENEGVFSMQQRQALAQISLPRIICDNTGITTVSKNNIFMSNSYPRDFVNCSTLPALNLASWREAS
T1 sequence (P05164 165-273 limits assumed): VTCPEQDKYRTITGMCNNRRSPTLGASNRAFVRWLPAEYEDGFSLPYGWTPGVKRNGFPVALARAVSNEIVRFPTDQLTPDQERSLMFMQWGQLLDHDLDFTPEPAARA
The following applies: 600 mg BID, Phase 2 studies.

Series [4] concerns TSPO. Conditions: 600 mg BID, Phase 2 studies.
The conditions of series [5]: subjects with MSA, 12 weeks, 600 mg BID.

`CC(C)OCCn1c(=S)[nH]c(=O)c2[nH]ccc21` [verdiperstat, 1-(2-isopropoxyethyl)-2-thioxo-1,2,3,5-tetrahydro-pyrrolo[3,2-d]pyrimidin-4-one]: the safety and tolerability entry was “generally safe and well tolerated” in series [1]; “generally safe and well tolerated” in series [2]. Also, the “MPO activity in plasma” value in series [3] is “decreased”. Also, in series [4], the “TSPO binding on brain PET imaging (microglial activation/neuroinflammation)” value was “reduced”. The “trends on clinical efficacy measures” value in series [5] is recorded as “favorable, dose-dependent trends”.
